According to patent publication US20140213513A1 (Sanofi, priority 2012, published 2014):
Converted amounts (≈) assume the structure as drawn. Where two headings read alike, the source gives them in different places. *1 amine or outer side, *2 acyl side, *3 side chain or, on linkers, in order; H or OH if unused. Where a SMILES comes first, the peptide text is derived from it. Side-chain parts run from the residue outwards. [ ]: non-standard residue; d: D form. The star is where a group is joined. γGlu = O=C(O)[C@H](CCC(=O)[*:2])N[*:1]; Palmitoyl = CCCCCCCCCCCCCCCC(=O)*; Aib = CC(C)(N)C(=O)O

Tests used:
[1] = biological target: T1, human GLP-1 receptor (hGLP-1 R) (Homo sapiens, UniProt P43220); assay: cAMP response of HEK-293 cells stably expressing human GLP-1 receptor (HTRF); assay type: cell-based; conditions: Table 7; cAMP formation
T1 construct: expressed in transfected cells
In short: (§1)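 HEK-293 cells stably expressing the receptor were resuspended at 400000 cells/ml in HBSS/20 mM HEPES/0.1% BSA buffer with 2 mM IBMX. Cells were stimulated with compound for 30 min at room temperature. Intracellular cAMP was measured by HTRF.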

[2] = biological target: T2, human GIP receptor (hGIP R) (Homo sapiens, UniProt P48546); assay: cAMP response of HEK-293 cells stably expressing human GIP receptor (HTRF); assay type: cell-based; conditions: Table 7; cAMP formation
T2 construct: expressed in transfected cells
T2 sequence (P48546 22-466): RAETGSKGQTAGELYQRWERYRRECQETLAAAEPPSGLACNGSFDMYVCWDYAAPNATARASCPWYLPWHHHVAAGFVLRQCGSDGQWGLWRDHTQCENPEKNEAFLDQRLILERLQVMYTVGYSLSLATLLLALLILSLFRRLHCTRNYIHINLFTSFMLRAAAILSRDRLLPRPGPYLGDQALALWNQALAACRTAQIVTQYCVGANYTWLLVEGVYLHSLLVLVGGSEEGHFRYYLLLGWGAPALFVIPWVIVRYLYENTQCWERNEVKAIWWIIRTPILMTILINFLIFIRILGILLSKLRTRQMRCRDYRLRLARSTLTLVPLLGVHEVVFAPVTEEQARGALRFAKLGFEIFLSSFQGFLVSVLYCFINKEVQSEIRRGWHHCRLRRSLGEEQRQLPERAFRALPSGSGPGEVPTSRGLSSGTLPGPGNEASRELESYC
In short: as §1

[3] = biological target: T3, human glucagon receptor (hGLUC R) (Homo sapiens, UniProt P47871); assay: cAMP response of HEK-293 cells stably expressing human glucagon receptor (HTRF); assay type: cell-based; conditions: Table 7; cAMP formation
T3 construct: expressed in transfected cells
In short: as §1

[4] = Solubility testing in buffer (HPLC-UV of supernatant); assay type: physicochemical
[5] = pH 4.5, target concentration 1.0 mg/mL, read-out: Solubility (pH 4.5)
[6] = pH 7.4, target concentration 1.0 mg/mL, read-out: Solubility (pH 7.4)

T3 sequence (P47871 26-477): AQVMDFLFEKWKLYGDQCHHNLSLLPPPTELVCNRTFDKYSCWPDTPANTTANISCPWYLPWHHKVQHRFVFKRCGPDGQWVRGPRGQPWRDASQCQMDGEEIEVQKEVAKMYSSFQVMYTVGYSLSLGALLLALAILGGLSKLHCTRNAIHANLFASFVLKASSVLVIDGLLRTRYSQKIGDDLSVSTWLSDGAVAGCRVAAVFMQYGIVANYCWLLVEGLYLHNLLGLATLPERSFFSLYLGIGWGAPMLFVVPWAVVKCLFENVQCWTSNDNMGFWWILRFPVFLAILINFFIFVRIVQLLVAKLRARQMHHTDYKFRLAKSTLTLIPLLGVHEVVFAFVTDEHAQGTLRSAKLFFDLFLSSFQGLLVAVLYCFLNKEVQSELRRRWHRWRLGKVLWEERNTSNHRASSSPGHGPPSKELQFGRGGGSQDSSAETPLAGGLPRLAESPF
T1 sequence (P43220 24-463): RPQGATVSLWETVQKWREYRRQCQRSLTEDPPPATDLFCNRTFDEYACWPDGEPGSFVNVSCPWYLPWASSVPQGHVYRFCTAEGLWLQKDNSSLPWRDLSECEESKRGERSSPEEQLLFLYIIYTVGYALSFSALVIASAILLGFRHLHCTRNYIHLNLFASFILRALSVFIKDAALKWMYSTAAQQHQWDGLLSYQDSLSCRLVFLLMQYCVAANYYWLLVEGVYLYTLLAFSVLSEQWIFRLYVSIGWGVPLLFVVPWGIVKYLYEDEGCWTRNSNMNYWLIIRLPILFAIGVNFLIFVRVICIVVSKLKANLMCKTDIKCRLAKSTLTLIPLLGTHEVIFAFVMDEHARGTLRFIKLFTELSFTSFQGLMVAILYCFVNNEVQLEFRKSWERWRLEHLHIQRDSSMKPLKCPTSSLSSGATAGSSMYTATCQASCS

CCCCCCCCCCCCCCCC(=O)N[C@@H](CCC(=O)NCCCC[C@H](NC(=O)[C@H](CCC(N)=O)NC(=O)[C@@H](NC(=O)[C@H](CO)NC(=O)[C@H](CC(C)C)NC(=O)[C@H](CC(=O)O)NC(=O)[C@H](CO)NC(=O)[C@@H](NC(=O)[C@H](Cc1ccccc1)NC(=O)[C@@H](NC(=O)CNC(=O)[C@H](CCC(N)=O)NC(=O)C(C)(C)NC(=O)[C@@H](N)Cc1ccc(O)cc1)[C@@H](C)O)[C@@H](C)O)[C@@H](C)CC)C(=O)N[C@@H](CC(=O)O)C(=O)N[C@@H](CCCCN)C(=O)N[C@@H](CCCNC(=N)N)C(=O)N[C@@H](CCCNC(=N)N)C(=O)N[C@@H](C)C(=O)N[C@@H](CCC(N)=O)C(=O)N[C@@H](CC(=O)O)C(=O)N[C@@H](Cc1ccccc1)C(=O)N[C@H](C(=O)N[C@@H](CCC(=O)O)C(=O)N[C@@H](Cc1c[nH]c2ccccc12)C(=O)N[C@@H](CC(C)C)C(=O)N[C@@H](CCCCN)C(=O)N[C@@H](C)C(=O)NCC(=O)NCC(=O)N1CCC[C@H]1C(=O)N[C@@H](CO)C(=O)N[C@@H](CO)C(=O)NCC(=O)N[C@@H](C)C(=O)N1CCC[C@H]1C(=O)N1CCC[C@H]1C(=O)N1CCC[C@H]1C(=O)N[C@@H](CO)C(N)=O)[C@@H](C)CC)C(=O)O [SEQ ID NO: 53, Y-Aib-Q-G-T-F-T-S-D-L-S-I-Q-K(yE-x53)-DKRRAQDFIEWLKAGGPSSGAPPPS-NH2] (H-Y[Aib]QGTFTSDLSIQK([γGlu-Palmitoyl])DKRRAQDFIEWLKAGGPSSGAPPPS-NH2)
EC50 [1]: 0.0136 nM | EC50 [2]: 0.0932 nM | EC50 [3]: 0.0079 nM | solubility at 2 h [4, 5]: 932 µg/mL (≈ 203 µM) | solubility at 2 h [4, 6]: 958 µg/mL (≈ 209 µM)

CCCCCCCCCCCCCCCC(=O)N[C@@H](CCC(=O)NCCCC[C@H](NC(=O)[C@H](CCC(N)=O)NC(=O)[C@H](CCCCN)NC(=O)[C@H](CO)NC(=O)[C@H](CC(C)C)NC(=O)[C@H](CC(=O)O)NC(=O)[C@H](CO)NC(=O)[C@@H](NC(=O)[C@H](Cc1ccccc1)NC(=O)[C@@H](NC(=O)CNC(=O)[C@H](CCC(N)=O)NC(=O)C(C)(C)NC(=O)[C@@H](N)Cc1ccc(O)cc1)[C@@H](C)O)[C@@H](C)O)C(=O)N[C@@H](CCC(=O)O)C(=O)N[C@@H](CO)C(=O)N[C@@H](CCCCN)C(=O)N[C@@H](C)C(=O)N[C@@H](C)C(=O)N[C@@H](CCC(N)=O)C(=O)N[C@@H](CCC(=O)O)C(=O)N[C@@H](Cc1ccccc1)C(=O)N[C@H](C(=O)N[C@@H](CCC(=O)O)C(=O)N[C@@H](Cc1c[nH]c2ccccc12)C(=O)N[C@@H](CC(C)C)C(=O)N[C@@H](CCCCN)C(=O)N[C@@H](C)C(=O)NCC(=O)NCC(=O)N1CCC[C@H]1C(=O)N[C@@H](CO)C(=O)N[C@@H](CO)C(=O)NCC(=O)N[C@@H](C)C(=O)N1CCC[C@H]1C(=O)N1CCC[C@H]1C(=O)N1CCC[C@H]1C(=O)N[C@@H](CO)C(N)=O)[C@@H](C)CC)C(=O)O [SEQ ID NO: 40, Y-Aib-Q-G-T-F-T-S-D-L-S-K-Q-K(yE-x53)-ESKAAQEFIEWLKAGGPSSGAPPPS-NH2] (H-Y[Aib]QGTFTSDLSKQK([γGlu-Palmitoyl])ESKAAQEFIEWLKAGGPSSGAPPPS-NH2)
EC50 [1]: 0.0055 nM | EC50 [2]: 0.0536 nM | EC50 [3]: 0.0226 nM | solubility at 2 h [4, 5]: 986 µg/mL (≈ 220 µM) | solubility at 2 h [4, 6]: 993 µg/mL (≈ 222 µM)

CCCCCCCCCCCCCCCC(=O)N[C@@H](CCC(=O)NCCCC[C@H](NC(=O)[C@H](CCC(N)=O)NC(=O)[C@@H](NC(=O)[C@H](CO)NC(=O)[C@H](CC(C)C)NC(=O)[C@H](CC(=O)O)NC(=O)[C@H](CO)NC(=O)[C@@H](NC(=O)[C@H](Cc1ccccc1)NC(=O)[C@@H](NC(=O)CNC(=O)[C@H](CCC(N)=O)NC(=O)C(C)(C)NC(=O)[C@@H](N)Cc1ccc(O)cc1)[C@@H](C)O)[C@@H](C)O)[C@@H](C)CC)C(=O)N[C@@H](CCC(=O)O)C(=O)N[C@@H](CCCCN)C(=O)N[C@@H](CCCNC(=N)N)C(=O)N[C@@H](C)C(=O)N[C@H](C(=O)NC(C)(C)C(=O)N[C@@H](CC(C)C)C(=O)N[C@@H](Cc1ccccc1)C(=O)N[C@H](C(=O)N[C@@H](CCC(=O)O)C(=O)N[C@@H](Cc1c[nH]c2ccccc12)C(=O)N[C@@H](CC(C)C)C(=O)N[C@@H](CCCCN)C(=O)N[C@@H](C)C(=O)NCC(=O)NCC(=O)N1CCC[C@H]1C(=O)N[C@@H](CO)C(=O)N[C@@H](CO)C(=O)NCC(=O)N[C@@H](C)C(=O)N1CCC[C@H]1C(=O)N1CCC[C@H]1C(=O)N1CCC[C@H]1C(=O)N[C@@H](CO)C(N)=O)[C@@H](C)CC)C(C)C)C(=O)O [SEQ ID NO: 24, Y-Aib-Q-G-T-F-T-S-D-L-S-I-Q-K(yE-x53)-E-K-R-A-V-Aib-L-F-I-E-W-L-K-A-G-G-P-S-S-G-A-P-P-P-S-NH2] (H-Y[Aib]QGTFTSDLSIQK([γGlu-Palmitoyl])EKRAV[Aib]LFIEWLKAGGPSSGAPPPS-NH2)
EC50 [1]: 0.0192 nM | EC50 [2]: 0.0104 nM | EC50 [3]: 0.284 nM | solubility at 2 h [4, 5]: > 1000 µg/mL | solubility at 2 h [4, 6]: 976 µg/mL (≈ 217 µM)

CCCCCCCCCCCCCCCC(=O)N[C@@H](CCC(=O)NCCCC[C@H](NC(=O)[C@H](CCC(N)=O)NC(=O)[C@H](CCCCN)NC(=O)[C@H](CO)NC(=O)[C@H](CC(C)C)NC(=O)[C@H](CC(=O)O)NC(=O)[C@H](CO)NC(=O)[C@@H](NC(=O)[C@H](Cc1ccccc1)NC(=O)[C@@H](NC(=O)CNC(=O)[C@H](CCC(=O)O)NC(=O)C(C)(C)NC(=O)[C@@H](N)Cc1ccc(O)cc1)[C@@H](C)O)[C@@H](C)O)C(=O)N[C@@H](CCC(=O)O)C(=O)N[C@@H](CCCCN)C(=O)N[C@@H](CCC(=O)O)C(=O)N[C@@H](C)C(=O)N[C@@H](C)C(=O)NC(C)(C)C(=O)N[C@@H](CCC(=O)O)C(=O)N[C@@H](Cc1ccccc1)C(=O)N[C@H](C(=O)N[C@@H](CCC(=O)O)C(=O)N[C@@H](Cc1c[nH]c2ccccc12)C(=O)N[C@@H](CC(C)C)C(=O)N[C@@H](CCCCN)C(=O)N[C@@H](C)C(=O)NCC(=O)NCC(=O)N1CCC[C@H]1C(=O)N[C@@H](CO)C(=O)N[C@@H](CO)C(=O)NCC(=O)N[C@@H](C)C(=O)N1CCC[C@H]1C(=O)N1CCC[C@H]1C(=O)N1CCC[C@H]1C(=O)N[C@@H](CO)C(N)=O)[C@@H](C)CC)C(=O)O [SEQ ID NO: 17, Y-Aib-E-G-T-F-T-S-D-L-S-K-Q-K(yE-x53)-E-K-E-A-A-Aib-E-F-I-E-W-L-K-A-G-G-P-S-S-G-A-P-P-P-S-NH2] (H-Y[Aib]EGTFTSDLSKQK([γGlu-Palmitoyl])EKEAA[Aib]EFIEWLKAGGPSSGAPPPS-NH2)
EC50 [1]: 0.0052 nM | EC50 [2]: 0.0083 nM | EC50 [3]: 21 nM | solubility at 2 h [4, 5]: > 1000 µg/mL | solubility at 2 h [4, 6]: > 1000 µg/mL

CCCCCCCCCCCCCCCC(=O)N[C@@H](CCC(=O)NCCCC[C@H](NC(=O)[C@H](CCC(N)=O)NC(=O)[C@@H](NC(=O)[C@H](CO)NC(=O)[C@H](CC(C)C)NC(=O)[C@H](CC(=O)O)NC(=O)[C@H](CO)NC(=O)[C@@H](NC(=O)[C@H](Cc1ccccc1)NC(=O)[C@@H](NC(=O)CNC(=O)[C@H](CCC(=O)O)NC(=O)C(C)(C)NC(=O)[C@@H](N)Cc1ccc(O)cc1)[C@@H](C)O)[C@@H](C)O)[C@@H](C)CC)C(=O)N[C@@H](CCC(=O)O)C(=O)N[C@@H](CCC(=O)O)C(=O)N[C@@H](CCCNC(=N)N)C(=O)N[C@@H](C)C(=O)N[C@@H](C)C(=O)N[C@@H](Cc1c[nH]cn1)C(=O)N[C@@H](CCC(=O)O)C(=O)N[C@@H](Cc1ccccc1)C(=O)N[C@H](C(=O)N[C@@H](CCC(=O)O)C(=O)N[C@@H](Cc1c[nH]c2ccccc12)C(=O)N[C@@H](CC(C)C)C(=O)N[C@@H](CCCCN)C(=O)N[C@@H](CCCNC(=N)N)C(=O)NC(C)(C)C(=O)NCC(=O)N1CCC[C@H]1C(=O)N[C@@H](CO)C(=O)N[C@@H](CO)C(=O)NCC(=O)N[C@@H](C)C(=O)N1CCC[C@H]1C(=O)N1CCC[C@H]1C(=O)N1CCC[C@H]1C(=O)N[C@@H](CO)C(N)=O)[C@@H](C)CC)C(=O)O [SEQ ID NO: 37, Y-Aib-E-G-T-F-T-S-D-L-S-I-Q-K(yE-x53)-E-E-R-A-A-H-E-F-I-E-W-L-K-R-Aib-G-P-S-S-G-A-P-P-P-S-NH2]
EC50 [1]: 0.0066 nM | EC50 [2]: 0.0121 nM | EC50 [3]: 12.1 nM | solubility at 2 h [4, 5]: > 1000 µg/mL | solubility at 2 h [4, 6]: > 1000 µg/mL
